According to PMC11238198, “Rejuvenation of Meropenem by Conjugation with Tilapia Piscidin-4 Peptide Targeting NDM-1 Escherichia coli” (ACS Omega, 2024):
No end group written: not given here.

Assays:
A. baumannii 2982 = assay: microbe, parasite or virus in culture; assay type: cell-based, Acinetobacter baumannii; conditions: Mueller Hinton broth, 50 μL of 1 × 10^6 CFU/mL + 50 μL sample, 37 °C, 16–20 h, three independent replicates, each in triplicate
Protocol: (§1) E. coli 8–8, A. baumannii 2982, and S. aureus 13–1 were procured from the Bioresource Collection and Research Center (BCRC), Taiwan. NDM-1-positive E. coli BAA 2452 was procured from ATCC. All strains were cultured in Mueller Hinton broth (MHB). The concentration of bacteria was identified by the absorbance at OD600. The colony forming units (CFU) corresponding to different OD600 values were identified by plating on the Mueller Hinton agar (MHA) plate.
(§2) Antibacterial analysis was performed according to a standard protocol.[32] Overnight cultures of test bacteria were prepared and freshly subcultured. Briefly, 50 μL of 1 × 10^6 CFU/mL bacterial cells was treated with 50 μL of peptide or conjugate at different concentrations in a 96-well plate. The plates were incubated at 37 °C for 16–20 h. The lowest concentration of peptide/conjugate showing no growth was considered the minimum inhibitory concentration (MIC). To identify the MIC (MBC), 5 μL of incubated suspensions from growth-free wells was plated onto MHA and incubated overnight at 37 °C. The lowest concentration of peptide/conjugate showing no growth on the MHA plate was considered to be the MBC. The experiments were performed in three independent replicates, each in triplicate.

NDM E. coli BAA 2452 [1] = assay: microbe, parasite or virus in culture; assay type: cell-based; conditions: Escherichia coli, BAA2452; 5 μL from growth-free wells plated onto MHA, overnight at 37 °C; three independent replicates, each in triplicate
Protocol: as §1, §2

S. aureus 13–1 = assay: microbe, parasite or virus in culture; assay type: cell-based; conditions: Mueller Hinton broth, 50 μL of 1 × 10^6 CFU/mL + 50 μL sample, 37 °C, 16–20 h, three independent replicates, each in triplicate
Protocol: as §1, §2

NDM E. coli BAA 2452 [2] = assay: microbe, parasite or virus in culture; assay type: cell-based, Escherichia coli; conditions: for MIC: NDM-1-positive MDR strain, Mueller Hinton broth, 37 °C, 16–20 h, three independent replicates, each in triplicate
Protocol: as §1, §2

E. coli 8–8 = assay type: cell-based, Escherichia coli; conditions: Mueller Hinton broth, 50 μL of 1 × 10^6 CFU/mL + 50 μL sample, 37 °C, 16–20 h; three independent replicates, each in triplicate
Protocol: as §1, §2

RBCs = assay type: cell-based, Human
Protocol: Human RBCs were used to examine the hemolytic profiles of the peptides and conjugates. The RBCs were washed three times with PBS and centrifuged at 1000g. Then, 50 μL of a 2% RBC suspension was added to 50 μL of peptide/conjugate solution at different concentrations. The mixture was incubated at 37 °C for 1 h. The incubated mixture was centrifuged, and hemolysis was assessed by measuring the absorbance of the supernatant at 540 nm.

CCD966-SK cells = assay type: cell-based, human; conditions: 16 µM
Protocol: RAW 264.7 murine macrophage cells, CCD966-SK human fibroblast cells, and HaCaT human keratinocytes were procured from BCRC, Taiwan. RAW264.7 and HaCaT cells were cultivated in DMEM supplemented with 10% FBS, streptomycin (100 μg/mL), and penicillin (100 U/mL) at 37 °C and 5% CO2. CCD966-SK were cultivated in MEM with 0.1 mM nonessential amino acids with 10% FBS, streptomycin (100 μg/mL), and penicillin (100 U/mL) at 37 °C and 5% CO2. In vitro cytotoxicity of the TP4-Meropenem conjugates was evaluated with an alamarBlue assay. Briefly, 5 × 10^4 RAW264.7 cells/well or 5 × 10^3 CCD966-SK or 1 × 10^4 HaCaT cells/well were seeded in 96-well plates for 24 h and then treated with different concentrations of peptide/conjugate. Controls included 0.1% Triton-X-treated cells and cells in a culture medium. After 24 h of treatment, the cells were washed and incubated with 90 μL of DMEM and 10 μL of alamarBlue reagent for 2 h. The absorbances at 570 and 600 nm were measured using a Spectra Max i3 (Molecular Devices, CA). Cell viability was calculated using the formula as described in the protocol. The LDH assay was carried out using the cytotoxicity detection kit PLUS according to a previously described protocol.[33]

## C[C@@H](O)[C@H]1C(=O)N2C(C(=O)O)=C(S[C@@H]3CN[C@H](C(=O)N(C)C)C3)[C@H](C)[C@H]12 [Meropenem]
A. baumannii 2982; Acinetobacter baumannii, 2982, read-out: minimum inhibitory concentration (MIC) A. baumannii 2982
  MIC: > 32 µM
NDM E. coli BAA 2452 [1]
  MBC: > 64 µM
S. aureus 13–1; Staphylococcus aureus, read-out: minimum inhibitory concentration (MIC) S. aureus 13–1
  MIC: 0.25 µM
NDM E. coli BAA 2452 [2]; Escherichia coli, BAA2452
  MIC: > 64 µM
NDM E. coli BAA 2452 [2]
  MIC: >64 µM

## D-Tilapia piscidin 4 [D-TP4]
E. coli 8–8
  minimum inhibitory concentration (MIC) E. coli 8–8: 2 to 4 µM
A. baumannii 2982
  minimum inhibitory concentration (MIC) A. baumannii 2982: 2 to 4 µM
S. aureus 13–1
  minimum inhibitory concentration (MIC) S. aureus 13–1: 2 to 4 µM

## FIHHIIGGLFSAGKAIHRLIRRRRR [L-TP4, Tilapia piscidin-4] [listing 1 of 2 here]
NDM E. coli BAA 2452 [2]; BAA 2452
  MIC NDM E. coli BAA 2452: 4 to 8 µM

## FIHHIIGGLFSAGKAIHRLIRRRRR [L-TP4, Tilapia piscidin-4] [listing 2 of 2 here]
RBCs; 4 µM
  hemolysis (% of the total cells) at 4 μM: 44.4 ± 4.3%
RBCs; 8 µM
  hemolysis (% of the total cells) at 8 μM: 84.1 ± 6.2%

## FIHHIIGGLFSAGKAIHRLIRRRRR [TP4, Tilapia piscidin-4]
CCD966-SK cells
  cell viability, CCD966-SK: 23.9 ± 1.2%
